Some test systems named below: KM12 colon; SF-268 CNS; UACC-257 melanoma; K-562 leukemia; 786-0 renal; SF-295 CNS; SK-MEL-28 melanoma; HCT-15 colon; HCC-2998 colon; NCI-H23 lung.
Holding throughout (assay): NCI tumour cell line growth inhibition, 48 h

Structures are written as SMILES. Several values for one entry are separate records, joined by “and”; a condition that tells them apart may be missing. Equal entries are not always repeated.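 Test compounds were applied to cells in 96-well plates for 48 hours at 5 doses. GI50 marks 50% less growth. TGI is the concentration that stops growth completely.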

On to `Nc1cc(O)ccc1N=Nc1ccc(-c2nc3ccccc3[nH]2)cc1`, for which the GI50 is 5.07 µM with KM12 colon; 3.07 µM in the assay on SF-268 CNS; 65.3 µM with UACC-257 melanoma; 23 µM in the assay on K-562 leukemia; 77.2 µM with 786-0 renal; 16.8 µM in the assay on SF-295 CNS. The GI50 is 34.8 µM in the assay with SK-MEL-28 melanoma and 37.2 µM with HCT-15 colon. For the same compound, the TGI is above 100 µM in the assay with KM12 colon; 22.8 µM in the assay on SF-268 CNS; above 100 µM in the assay with UACC-257 melanoma; above 100 µM in the assay with K-562 leukemia; above 100 µM in the assay on 786-0 renal; above 100 µM in the assay on SF-295 CNS. Moreover, the TGI with SK-MEL-28 melanoma and in the assay on HCT-15 colon was above 100 µM in each case.
On to `COC(=O)/C(=N/Nc1cccc(Cl)c1)C(C(=O)C(=O)Nc1cccc(Cl)c1C)c1nc2ccccc2nc1C` (centres undefined), for which the TGI in the assay with HCC-2998 colon, in the assay on KM12 colon, with SF-268 CNS, in the assay with UACC-257 melanoma, in the assay with NCI-H23 lung and with K-562 leukemia was above 100 µM throughout. The TGI with 786-0 renal, with SF-295 CNS and in the assay on SK-MEL-28 melanoma was above 100 µM throughout.
As for `COc1ccccc1C1=C(Nc2ccccc2)C(=O)NC1=O`, the GI50 was above 25 µM in the assay with HCC-2998 colon; above 23.8 µM in the assay with KM12 colon; above 25 µM in the assay with SF-268 CNS; above 25 µM in the assay with K-562 leukemia; above 25 µM with 786-0 renal; above 25 µM with SF-295 CNS. Also, the GI50 in the assay with SK-MEL-28 melanoma and in the assay with HCT-15 colon was above 25 µM throughout. The TGI in the assay on HCC-2998 colon, in the assay with KM12 colon, in the assay on SF-268 CNS, in the assay on K-562 leukemia, in the assay on 786-0 renal and in the assay with SF-295 CNS was above 25 µM each time. Besides, the TGI in the assay with SK-MEL-28 melanoma and in the assay on HCT-15 colon was above 25 µM each time.
Turning to `Cc1noc2c1C(=O)CCC2`, the TGI in the assay on SF-268 CNS, in the assay with UACC-257 melanoma, with K-562 leukemia, in the assay on 786-0 renal and with SK-MEL-28 melanoma was above 100 µM in each case.
Consider `COC(=O)C1C=CCON2CCc3c(n(C)c4ccccc34)C12` (centres undefined), for which the TGI with HCC-2998 colon, in the assay on KM12 colon, in the assay with SF-268 CNS, with NCI-H23 lung, with K-562 leukemia and with 786-0 renal was above 100 µM in each case. Besides, the TGI in the assay with SF-295 CNS, in the assay on SK-MEL-28 melanoma and in the assay with HCT-15 colon was above 100 µM throughout.
Regarding `S=C(Nc1ccc(N=Nc2ccccc2)cc1)SCc1ccccc1`, the TGI in the assay on KM12 colon was 30.6 µM; with SF-268 CNS, 36.6 µM; with UACC-257 melanoma it was 33.3 µM; in the assay on NCI-H23 lung it was 30.7 µM; in the assay on K-562 leukemia, 39.9 µM; in the assay with 786-0 renal, 38 µM. Moreover, the TGI in the assay on SF-295 CNS stood at 34.4 µM; with SK-MEL-28 melanoma it was 38 µM; in the assay on HCT-15 colon, 28.3 µM.
As to `O=S(=O)(O)c1ccc(N=Nc2nc(C(F)(F)F)c(C(F)(F)F)[nH]2)cc1`, the TGI was above 100 µM in the assay on KM12 colon; above 100 µM in the assay on SF-268 CNS; above 100 µM in the assay on UACC-257 melanoma; 68.7 µM in the assay with NCI-H23 lung; above 100 µM with K-562 leukemia; above 100 µM in the assay on 786-0 renal. Moreover, the values for the TGI in the assay with SF-295 CNS, in the assay with SK-MEL-28 melanoma and in the assay on HCT-15 colon were above 100 µM, 36.2 µM and above 100 µM, respectively.
As to `COc1cc(NS(C)(=O)=O)ccc1Nc1c2ccccc2nc2ccccc12`, the GI50 in the assay on HCC-2998 colon was 2.4 µM and 2.19 µM and 2.34 µM; in the assay with KM12 colon it was 1.71 µM and 1.68 µM; in the assay on SF-268 CNS, 1.14 µM and 0.483 µM and 0.511 µM; in the assay with UACC-257 melanoma, 11.8 µM and 5.93 µM; in the assay on NCI-H23 lung, 0.55 µM and 0.377 µM and 0.368 µM; in the assay on K-562 leukemia, 1.94 µM and 1.87 µM and 0.624 µM. In addition, the GI50 with 786-0 renal is 0.458 µM and 0.279 µM and 0.27 µM; with SF-295 CNS, 0.405 µM and 0.166 µM and 0.136 µM; in the assay on HCT-15 colon, 1.7 µM and 1.38 µM and 1.45 µM. Moreover, the TGI is 11.4 µM [middle of 8 runs] in the assay on KM12 colon and 1.77 µM [middle of 8 runs] in the assay on 786-0 renal.
For the compound `NC1=NC(c2ccc(Cl)cc2)N(c2ccc(S(N)(=O)=O)cc2)C(N)=N1` (centres undefined), the TGI with KM12 colon, in the assay with SF-268 CNS, in the assay on UACC-257 melanoma, with NCI-H23 lung, in the assay on K-562 leukemia and in the assay with 786-0 renal was above 100 µM throughout. For the same compound, the TGI in the assay with SF-295 CNS, in the assay with SK-MEL-28 melanoma and in the assay on HCT-15 colon was above 100 µM throughout.
Regarding `O=C(CCC(=O)Nc1ccc(Cl)c(Cl)c1)CC(=O)c1ccc(F)cc1`, the TGI in the assay with HCC-2998 colon, in the assay with KM12 colon, in the assay on SF-268 CNS, in the assay on UACC-257 melanoma, in the assay with NCI-H23 lung and in the assay with K-562 leukemia was above 100 µM each time. The TGI in the assay with 786-0 renal, with SF-295 CNS and in the assay on SK-MEL-28 melanoma was above 100 µM in each case.
Regarding `COC(=O)C1=C(c2ccc(OC)c(OC)c2)OC(c2cc(OC)c(OC)c(OC)c2)C1` (centres undefined), the TGI in the assay with HCC-2998 colon, in the assay on KM12 colon, in the assay on SF-268 CNS, in the assay with UACC-257 melanoma, in the assay on NCI-H23 lung and in the assay on K-562 leukemia was above 100 µM each time. Besides, the TGI with 786-0 renal is 74.4 µM; in the assay with SF-295 CNS, above 100 µM; in the assay on SK-MEL-28 melanoma, above 100 µM.
As for `CS(=O)(=O)NNS(=O)(=O)c1ccccc1`, the TGI with HCC-2998 colon, with KM12 colon, in the assay on SF-268 CNS, with UACC-257 melanoma, in the assay with NCI-H23 lung and in the assay with K-562 leukemia was above 100 µM in each case. For the same compound, the TGI with 786-0 renal, with SF-295 CNS and in the assay with HCT-15 colon was above 100 µM each time.
Consider `Cc1cn(C2C=CC(CO)O2)c(=O)[nH]c1=O` (centres undefined), for which the TGI with HCC-2998 colon, in the assay with KM12 colon, in the assay on SF-268 CNS, in the assay with UACC-257 melanoma, in the assay with NCI-H23 lung and in the assay on K-562 leukemia was above 1000 µM each time. Besides, the TGI in the assay on 786-0 renal, with SF-295 CNS and in the assay with HCT-15 colon was above 1000 µM each time.
